Source: ChEMBL document CHEMBL5375942, “Discovery of a Potent Chloroacetamide GPX4 Inhibitor with Bioavailability to Enable Target Engagement in Mice, a Potential Tool Compound for Inducing Ferroptosis In Vivo” (J Med Chem, 2023)

Assays:
[1] = system: NCI-H1703; assay: Induction of ferroptosis in human NCI-H1703 cells assessed as cell viability incubated for 72 hrs in presence of ferrostatin-1 by CellTiter-Glo luminescent cell viability assay; type: functional, cell-based; conditions: NCI-H1703, 72 h
[2] = system: NCI-H1703; assay: Induction of ferroptosis in human NCI-H1703 cells assessed as cell viability incubated for 72 hrs by CellTiter-Glo luminescent cell viability assay; type: functional, cell-based; conditions: NCI-H1703, 72 h
[3] = Unbound fraction in human plasma; type: ADME, cell-free
[4] = Stability in human plasma assessed as half life; type: ADME, cell-free
[5] = Metabolic stability in human liver microsomes assessed as unbound intrinsic clearance; type: ADME, Microsome
[6] = Stability in mouse plasma assessed as half life; type: ADME, cell-free
[7] = Metabolic stability in mouse liver microsomes assessed as unbound intrinsic clearance; type: ADME, Microsome
[8] = Cmax in CB17 SCID-Beige mouse subcutaneously inoculated with WSUDLCL2 cells at 30 mg/kg, ip; type: ADME, organism-based; set-up: dose 30 mg/kg, route ip; conditions: in vivo
[9] = Aqueous solubility of the compound at pH 1; type: physicochemical
[10] = Aqueous solubility of the compound at pH 7; type: physicochemical
[11] = Half life in CB17 SCID-Beige mouse subcutaneously inoculated with WSUDLCL2 cells at 30 mg/kg, ip; type: ADME, organism-based; conditions: in vivo
[12] = AUC in CB17 SCID-Beige mouse subcutaneously inoculated with WSUDLCL2 cells at 30 mg/kg, ip; type: ADME, organism-based; set-up: dose 30 mg/kg, route ip; conditions: in vivo

EC50 [1] [µM]	EC50 [2] [nM]	fraction unbound [3]	half-life [4] [min]	CL free [5] [L/h/kg]	half-life [6] [min]	CL free [7] [L/h/kg]	Cmax [8] [ng/mL]	solubility [9] [µM]	solubility [10] [µM]	half-life [11] [min]	AUC [12] [µg/h/mL]	SMILES
3.74	737	–	–	–	–	–	–	–	–	–	–	CN(C)C(=O)[C@H]1Cc2c([nH]c3ccccc23)[C@H](c2ccccc2)N1C(=O)CCl
> 10	127	0.068	782	22.5	241	123	–	–	–	–	–	COC(=O)[C@H]1Cc2c([nH]c3ccccc23)[C@H](c2ccc(OC)cc2)N1C(=O)CCl
> 10	28	–	–	–	–	–	–	–	–	–	–	COC(=O)[C@H]1Cc2c([nH]c3ccccc23)[C@H](c2ccc(F)cc2Cl)N1C(=O)CCl
> 10	64	–	–	–	–	–	–	–	–	–	–	COC(=O)[C@H]1Cc2c([nH]c3ccccc23)C(c2ccc(F)cc2C(F)(F)F)N1C(=O)CCl (single isomer, unassigned)
–	> 10000	–	56	4.6	63	54.3	–	–	–	–	–	C=CC(=O)N1[C@@H](c2ccccc2)c2[nH]c3ccccc3c2C[C@@H]1C(=O)OC
> 10	1760	0.061	446	17.5	216	98.5	–	–	–	–	–	O=C([C@H]1Cc2c([nH]c3ccccc23)[C@H](c2ccccc2)N1C(=O)CCl)N1CCCC1
4.27	75	–	–	–	–	–	–	–	–	–	–	COC(=O)[C@H]1Cc2c([nH]c3ccccc23)[C@H](c2ccc(OC(F)(F)F)cc2)N1C(=O)CCl
> 10	116	–	–	–	–	–	–	–	–	–	–	COC(=O)[C@H]1Cc2c([nH]c3ccccc23)[C@H](c2ccccc2)N1C(=O)CCl
–	157	–	24	–	19	–	–	–	–	–	–	C#CC(=O)N1[C@@H](c2ccccc2)c2[nH]c3ccccc3c2C[C@@H]1C(=O)OC
> 10	984	0.026	366	28.6	162	283.5	–	–	–	–	–	COC(=O)[C@H]1Cc2c([nH]c3ccccc23)[C@H](Cc2ccccc2)N1C(=O)CCl
3.25	37	–	> 960	85.1	263	177.7	410	< 0.8	< 0.8	84	1.53	COC(=O)[C@H]1Cc2c([nH]c3ccccc23)[C@H](c2ccc(C(F)(F)F)cc2)N1C(=O)CCl
> 10	44	0.013	404	7.1	161	54.6	–	–	–	–	–	Cc1noc([C@H]2Cc3c([nH]c4ccccc34)[C@H](c3ccccc3)N2C(=O)CCl)n1
